The subject of assay [1] is FLT3 ITD.Y842C-expressing 32D cells. The assay can be described thus: Cell growth assay, FLT3 ITD.Y842C-expressing 32D cells. Format: cell-based. Particulars: Mus musculus, read-out: GI50 value for growth of FLT3 protein-expressing 32D cells. From the text: (§1) The ITD.Y842C-mutant or ITD.Y842H-mutant FLT3-expressing vector was constructed by introducing Y842C and Y842H mutations into the C-terminal FLAG sequence-added ITD-mutant FLT3 gene inserted into a pGEM-T vector as a template, using the primers shown below and according to the protocol of a QuikChange Site-Directed Mutagenesis Kit (Stratagene Corporation), and then inserting the whole length of the ITD.Y842-mutant FLT3 gene into a pMXs-IP retroviral vector. Introduced mutations were confirmed by sequence analysis.
(§2) The mutant FLT3 pMXs-IP retroviral vectors prepared according to the above-mentioned procedure were introduced into PLAT-E cells by using FuGENE6, followed by culturing for 2 days, and the culture supernatant containing viruses was collected. […]
(§3) Individual cells were seeded onto a 96-well plate (Becton, Dickinson and Company) at a density of 1000 to 10000 cells/well, and the cell culture was started at 37° C. in the presence of 5% CO2. […] Thereafter, the absorbance (OD=492 nm) was measured using an MPR-A4i II microplate reader (Tosoh Corporation). In a case where the absorbance is insufficient, the absorbance was measured after performing the culturing for another 1 to 2 hours. […]

The next assay concerns 32D FLT3 Y842H cells. Put plainly: Cell growth assay, 32D FLT3 Y842H. Format: cell-based. Particulars: Mus musculus, 48 h, FLT3 Y842H, 2 days with compound, read-out: GI50 value for growth of FLT3 protein-expressing 32D cells. The procedure:
(§4) After the virus-containing culture supernatant was added to the mouse hematopoietic precursor cell line 32D cells in the presence of 10 μg/mL polybrene, and the cells were cultured in the presence of 0.5 ng/mL mouse IL-3.
(§5) Individual cells were seeded onto a 96-well plate (Becton, Dickinson and Company) at a density of 1000 to 10000 cells/well, and the cell culture was started at 37° C. in the presence of 5% CO2. On the next day, the compound diluted in 3-fold common ratio was added to each well, followed by further culturing for 2 days. Then, in order to evaluate the cell viability, a CellTiter 96 AQueous One SolutionReagent was added to each well according to the Promega Corporation's protocol, followed by culturing for 1 hour. […] In a case where the absorbance is insufficient, the absorbance was measured after performing the culturing for another 1 to 2 hours.

The next assay relates to 32D FLT3 D835Ins cells. Put plainly: Cell growth assay, 32D FLT3 D835Ins. Format: cell-based. Particulars: Mus musculus, 48 h, FLT3 D835Ins (I836 to leucine and aspartic acid), 2 days with compound, read-out: GI50 value for growth of FLT3 protein-expressing 32D cells. On the procedure: as §4, §5
The next assay relates to 32D FLT3 D835E cells. The assay can be described thus: Cell growth assay, 32D FLT3 D835E. Format: cell-based. Particulars: Mus musculus, 48 h, FLT3 D835E, 2 days with compound, read-out: GI50 value for growth of FLT3 protein-expressing 32D cells. The procedure: as §4, §5
For the next assay, the system named is 32D FLT3/FL cells. The assay can be described thus: Cell growth assay, FLT3/FLT3 ligand-coexpressing 32D cell line. Format: cell-based. Particulars: Mus musculus, 48 h, FLT3/FL, 2 days with compound, read-out: GI50 value for growth of FLT3 protein-expressing 32D cells. On the procedure:
RPMI1640 and DMEM were purchased from Life Technologies or SIGMA. The 32D cells were obtained from RIKEN Bioresource Center, and cultured in the presence of 5% CO2 at 37° C. using an RPMI1640 medium containing 1 ng/mL mouse IL-3, 10% fetal bovine serum (FBS), 100 U/mL penicillin and […] streptomycin. The PLAT-E cells were kindly provided by Dr. Kitamura Toshio of Tokyo University and cultured in a DMEM medium containing 1 μg/mL puromycin, 10 μg/mL blasticidin S, 10% FBS, 100 U/mL penicillin and […] streptomycin. […] A pGEM-T vector, FuGENE6 and CellTiter 96 AQueous One Solution Cell Proliferation Assay were purchased from Promega Corporation.
as §5

Another assay relates to 32D FLT3 D835N cells. Put plainly: Cell growth assay, 32D FLT3 D835N. Format: cell-based. Particulars: Mus musculus, 48 h, FLT3 D835N, 2 days with compound, read-out: GI50 value for growth of FLT3 protein-expressing 32D cells. On the procedure: as §4, §5
For assay [2], the system named is FLT3 ITD.Y842H-expressing 32D cells. Put plainly: Cell growth assay, FLT3 ITD.Y842H-expressing 32D cells. Particulars: Mus musculus, read-out: GI50 value for growth of FLT3 protein-expressing 32D cells. Format: cell-based.
Excerpt: as §1, §2, §3

The next assay has as its system 32D FLT3 Y842C cells. Put plainly: Cell growth assay, 32D FLT3 Y842C. Particulars: Mus musculus, 48 h, FLT3 Y842C, 2 days with compound, read-out: GI50 value for growth of FLT3 protein-expressing 32D cells. Format: cell-based. The procedure:
as §4, §5

The test system of assay [3] is FLT3 ITD-expressing 32D cells. The assay can be described thus: Cell growth assay, FLT3 ITD-expressing 32D cells. Format: cell-based. To be noted: Mus musculus, read-out: GI50 value for growth of FLT3 protein-expressing 32D cells.
Excerpt: The ITD-mutant FLT3-expressing vector was constructed by introducing an ITD-mutant FLT3 gene (clone Mt2) described in Kiyoi H, et al., Leukemia, Vol. 12, pp. 1333 to 1337, 1998 into a pMXs-IP retroviral vector as a sequence having a FLAG sequence added to the C-terminal thereof.
(§6) The mutant FLT3 pMXs-IP retroviral vectors prepared according to the above-mentioned procedure were introduced into PLAT-E cells by using FuGENE6, followed by culturing for 2 days, and the culture supernatant containing viruses was collected. After the virus-containing culture supernatant was added to the mouse hematopoietic precursor cell line 32D cells in the presence of 10 μg/mL polybrene, and the cells were cultured in the presence of 0.5 ng/mL mouse IL-3. […]
as §3

In assay [4] the test system is FLT3 ITD.D835Y-expressing 32D cells. The assay can be described thus: Cell growth assay, FLT3 ITD.D835Y-expressing 32D cells. Format: cell-based. Particulars: Mus musculus, read-out: GI50 value for growth of FLT3 protein-expressing 32D cells.
Excerpt: The ITD.D835Y-mutant FLT3-expressing vector was constructed by replacing a sequence containing aspartic acid 835 cleaved by Sphl, in the C-terminal FLAG sequence-added ITD-mutant FLT3 gene inserted into a pGEM-T vector, with the corresponding sequence of the C-terminal FLAG sequence-added D835Y-mutant FLT3 gene inserted into a pGEM-T vector, and then inserting the whole length of C-terminal FLAG sequence-added ITD.D835Y-mutant FLT3 sequence into a pMXs-IP retroviral vector.
as §6, §3

The next assay concerns 32D FLT3 D835V cells. The assay can be described thus: Cell growth assay, 32D FLT3 D835V. Format: cell-based. Particulars: Mus musculus, 48 h, FLT3 D835V, 2 days with compound, read-out: GI50 value for growth of FLT3 protein-expressing 32D cells. The procedure: as §4, §5
For a further assay, the system named is 32D FLT3 D835Y cells. Put plainly: Cell growth assay, 32D FLT3 D835Y. Format: cell-based. Particulars: Mus musculus, 48 h, FLT3 D835Y, 2 days with compound, read-out: GI50 value for growth of FLT3 protein-expressing 32D cells. On the procedure: as §4, §5
The next assay concerns 32D FLT3 D835H cells. Put plainly: Cell growth assay, 32D FLT3 D835H. Particulars: Mus musculus, 48 h, FLT3 D835H, 2 days with compound, read-out: GI50 value for growth of FLT3 protein-expressing 32D cells. Format: cell-based. On the procedure: as §4, §5
Assay [5] has as its target mutant FLT3 protein (FLT3 D835Y) (Homo sapiens (Human), UniProt P36888, D835Y). The assay can be described thus: Mutant FLT3 (FLT3 D835Y) enzyme inhibition assay. Format: biochemical. To be noted: ATP 15 μmol/L, read-out: IC50 value for an enzymatic activity of a mutant FLT3 protein.

On to `CCCNc1nc(Nc2ccc(C#N)cc2)ncc1C#CCCCNC(=O)[C@H](C)N(C)C(=O)/C=C/CN(C)C` [Compound 38], for which the GI50 (in [1]; in the assay on 32D FLT3 Y842H cells; in the assay on 32D FLT3 D835Ins cells; with 32D FLT3 D835E cells; in the assay on 32D FLT3/FL cells; with 32D FLT3 D835N cells) was 1 to 10 nM each time. The GI50 in [2] was < 1 nM; in the assay with 32D FLT3 Y842C cells, 1 to 10 nM; in assay [3], 1 to 10 nM; in assay [4] it was 1 to 10 nM; with 32D FLT3 D835V cells, < 1 nM; with 32D FLT3 D835Y cells, < 1 nM. Also, in the assay on 32D FLT3 D835H cells, the GI50 is 1 to 10 nM.
With `CNc1nc(Nc2ccc(F)cc2)ncc1C#C[C@H]1C[C@@H](NC(=O)[C@H](C)N(C)C(=O)/C=C/CN(C)C)C1` [Compound 41], the GI50 in the assay with 32D FLT3 Y842H cells is 1 to 10 nM; with 32D FLT3 D835Ins cells, 1 to 10 nM; with 32D FLT3 D835E cells it was 1 to 10 nM; with 32D FLT3/FL cells it was < 1 nM; with 32D FLT3 D835N cells, 1 to 10 nM; in the assay on 32D FLT3 Y842C cells, 1 to 10 nM. Also, the GI50 in the assay on 32D FLT3 D835V cells, in the assay on 32D FLT3 D835Y cells and in the assay with 32D FLT3 D835H cells was 1 to 10 nM each time. The IC50 in assay [5] is < 1 nM.

The term GI50 denotes the concentration giving 50% growth inhibition. A word on the IC50: it is the midpoint of a concentration-inhibition curve.

The values are drawn from patent US9987278B2, “Pharmaceutical composition for treating FLT3 mutation-positive cancer, mutant FLT3 inhibitor and uses thereof” (FUJIFILM Corporation, priority 2014, dated 2018).
